The results in this text go back to PubChem BioAssay (NCI).

Among the test systems are A498 renal; NCI-H23 lung; NCI-H522 lung; OVCAR-5 ovarian; COLO 205 colon; OVCAR-4 ovarian; NCI-H226 lung; HCC-2998 colon; ACHN renal.
Holding throughout (test): DTP human tumour cell line panel, 48 h

SMILES strings stand for the structures.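 Five concentrations, 48 hours, 96-well plates. Definition used: TGI = concentration required for complete inhibition of growth.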

Take `COc1cc([C@@H]2c3cc4c(cc3[C@@H](NC(=O)c3ccccc3)C3COC(=O)[C@@H]32)OCO4)cc(OC)c1O` (stereo partly specified): the TGI with A498 renal is 27 µM; with NCI-H23 lung it was 10.7 µM; in the experiment with NCI-H522 lung, 26.2 µM; in the experiment on OVCAR-5 ovarian, above 100 µM; with COLO 205 colon, 92.8 µM; with OVCAR-4 ovarian, above 100 µM. Also, the total growth inhibition concentration (TGI) with NCI-H226 lung turned out to be 8.28 µM; in the experiment with HCC-2998 colon, 35.4 µM; in the experiment on ACHN renal it was 5.55 µM.

Turning to `CCC12CCCC(=O)N1C(CO)C(c1ccccc1)O2` (stereo unspecified), the TGI in the experiment with A498 renal, with NCI-H23 lung, with OVCAR-5 ovarian, with COLO 205 colon, in the experiment on OVCAR-4 ovarian and in the experiment with ACHN renal was above 100 µM throughout.

As for `CC1=C(O)C(=O)C2C(=O)C1C(C)C2c1ccc(Cl)cc1` (stereo unspecified), the TGI in the experiment on A498 renal, in the experiment on NCI-H23 lung, in the experiment with NCI-H522 lung, with OVCAR-5 ovarian, with COLO 205 colon and with OVCAR-4 ovarian was above 100 µM throughout. The TGI in the experiment with NCI-H226 lung, in the experiment on HCC-2998 colon and in the experiment with ACHN renal was above 100 µM in each case.

Turning to `CC(=O)n1c2ccccc2c2nc3nc(Oc4ccc(C)cc4)c4ccccc4c3cc21`, the total growth inhibition concentration (TGI) was 78.7 µM in the experiment on NCI-H23 lung; above 100 µM in the experiment with NCI-H522 lung; above 100 µM in the experiment on OVCAR-5 ovarian; above 100 µM in the experiment with COLO 205 colon; above 100 µM in the experiment with OVCAR-4 ovarian; above 100 µM in the experiment with NCI-H226 lung. Further, the concentration for total growth inhibition (TGI) with HCC-2998 colon and with ACHN renal was above 100 µM each time.

With `CCCCCCCCCc1cc(=O)c2ccc(O)cc2o1`, the total growth inhibition concentration (TGI) with NCI-H23 lung, in the experiment with NCI-H522 lung, with OVCAR-5 ovarian, in the experiment with COLO 205 colon, in the experiment on OVCAR-4 ovarian and in the experiment on NCI-H226 lung was above 100 µM each time. Besides, the total growth inhibition concentration (TGI) in the experiment on ACHN renal is above 100 µM.

As to `CCOC(=O)C(=O)Nc1c(C)cccc1C`, the TGI in the experiment on NCI-H23 lung, in the experiment with OVCAR-5 ovarian, in the experiment on COLO 205 colon, with OVCAR-4 ovarian, in the experiment with NCI-H226 lung and with HCC-2998 colon was above 100 µM throughout. Also, the TGI with ACHN renal was above 100 µM.

On to `COc1ccc2oc3cccc(NCCN(C)C)c3c(=O)c2c1`, for which the TGI is 33.8 µM in the experiment with A498 renal; 32.7 µM with NCI-H23 lung; 24.9 µM in the experiment on OVCAR-5 ovarian; 19.1 µM with COLO 205 colon; 27.7 µM in the experiment with OVCAR-4 ovarian; 32 µM with NCI-H226 lung. Also, the results for the concentration for total growth inhibition (TGI) in the experiment on HCC-2998 colon and in the experiment with ACHN renal were 21.9 µM and 23.2 µM, respectively.

On to `CC/C=C\C/C=C\C/C=C\CCCCCCCC(=O)OCC`, for which the total growth inhibition concentration (TGI) with A498 renal, in the experiment on NCI-H23 lung, in the experiment with OVCAR-5 ovarian, in the experiment with COLO 205 colon, in the experiment on OVCAR-4 ovarian and with NCI-H226 lung was above 100 µM in each case. Further, the TGI in the experiment on HCC-2998 colon and in the experiment on ACHN renal was above 100 µM each time.

With `CSc1nc2c(nc(N)n2C2OCC(O)C(O)C2O)c(=O)n1C` (stereo unspecified), the TGI in the experiment with A498 renal, with NCI-H23 lung, in the experiment with NCI-H522 lung, in the experiment on COLO 205 colon, with OVCAR-4 ovarian and with NCI-H226 lung was above 100 µM in each case. The total growth inhibition concentration (TGI) with HCC-2998 colon and in the experiment on ACHN renal was above 100 µM in each case.

Consider `CC(C)CC1=[N+]=C(NC#N)N=C(CCC(=O)Nc2ccccc2[N+](=O)[O-])C1`, for which the TGI in the experiment with A498 renal, with NCI-H23 lung, with NCI-H522 lung, in the experiment on OVCAR-5 ovarian, in the experiment on COLO 205 colon and in the experiment on OVCAR-4 ovarian was above 100 µM each time. Further, the total growth inhibition concentration (TGI) in the experiment on NCI-H226 lung, with HCC-2998 colon and with ACHN renal was above 100 µM each time.

`O=C1C2=C(c3ccccc31)C(c1ccccc1)NC(=S)N2` (stereo unspecified): the total growth inhibition concentration (TGI) in the experiment with A498 renal, in the experiment with NCI-H23 lung, in the experiment with NCI-H522 lung, in the experiment with OVCAR-5 ovarian, with COLO 205 colon and in the experiment on OVCAR-4 ovarian was above 100 µM throughout. The TGI in the experiment on NCI-H226 lung, in the experiment on HCC-2998 colon and in the experiment on ACHN renal was above 100 µM throughout.

As for `S=c1[nH]c2ccc(Br)cc2c(=S)n1-c1ccccc1`, the TGI was 98.4 µM in the experiment on A498 renal; 65.6 µM with NCI-H23 lung; above 100 µM in the experiment with OVCAR-5 ovarian; 47.1 µM in the experiment with COLO 205 colon; above 100 µM in the experiment on OVCAR-4 ovarian; 83.6 µM in the experiment on NCI-H226 lung. Also, the TGI in the experiment with HCC-2998 colon came out at 40.8 µM; in the experiment on ACHN renal, 79.3 µM.

Consider `CCCCCCCCCCCCCCCC(=O)OCC1OC(n2c(O)c(N=NC(N)=S)c3ccc([N+](=O)[O-])cc32)C(OC(C)=O)C1OC(C)=O` (stereo unspecified), for which the TGI in the experiment on NCI-H23 lung, in the experiment with NCI-H522 lung, with OVCAR-5 ovarian, in the experiment on COLO 205 colon, in the experiment with OVCAR-4 ovarian and in the experiment with NCI-H226 lung was above 100 µM in each case. Also, the total growth inhibition concentration (TGI) in the experiment on HCC-2998 colon and with ACHN renal was above 100 µM each time.

For `CC(=O)Oc1ccc(O)c(O)c1C/C=C(\C)CC/C=C(\C)CC/C=C(\C)CCC=C(C)C`, the TGI in the experiment on NCI-H23 lung was 1.47 µM; in the experiment with NCI-H522 lung, 6.84 µM; in the experiment on OVCAR-5 ovarian it was 1.89 µM; in the experiment with COLO 205 colon, 0.341 µM; in the experiment on OVCAR-4 ovarian it was 1.72 µM; in the experiment on NCI-H226 lung, 2.27 µM. Besides, the TGI with HCC-2998 colon was determined as 2.26 µM; with ACHN renal, 0.823 µM.

Take `CC(=O)c1cc([N+](=O)[O-])ccc1OCC(=O)O`: the TGI in the experiment with A498 renal, in the experiment with NCI-H23 lung, in the experiment with NCI-H522 lung, in the experiment with OVCAR-5 ovarian, with COLO 205 colon and with OVCAR-4 ovarian was above 100 µM each time. Besides, the TGI in the experiment on NCI-H226 lung, in the experiment with HCC-2998 colon and in the experiment with ACHN renal was above 100 µM each time.

On to `Cn1nc(-c2ccccc2)c(C(=O)/C=C/c2ccccc2)c(N2CCOCC2)c1=O`, for which the concentration for total growth inhibition (TGI) is 35 µM in the experiment on A498 renal; 45.1 µM in the experiment on NCI-H23 lung; 29.9 µM with NCI-H522 lung; 35.9 µM in the experiment on COLO 205 colon; 39.9 µM in the experiment with ACHN renal.
